Experimental data as given in patent publication US20040176313A1, “Inhibitors of Src kinase for use in alzheimer's disease” (Aventis Pharma S.A., priority 2002, published 2004).

Columns and labels:
[1] = tested on: Aβ secretion, CHO cells stably overexpressing APP751; experiment: Aβ secretion from CHO cells stably overexpressing APP751 treated with PP2 or PP3 (FIG. 6); assay type: cell-based; details: PP2 5 and 20 μM, PP3 20 μM (highest concentration), time points 1, 3 and 12 hours
Procedure: Therefore, a line of CHO cells stably overexpressing APP751 form was used, which secretes discrete levels of Aβ. If secretion involves endogenous Src activity, PP2 should be able to inhibit production of Aβ also in this cellular system.
(§1) Human embryonic kidney cells (HEK293) were cultured in Dulbecco's modified minimal medium supplemented with 10% fetal calf serum at 37° C. in a 5% CO2 atmosphere. For transfection, cells were grown for 16 hours in antibiotic-free medium, and transfected with Lipofectamine 2000 (Invitrogen) according to manufacturer's instructions. The total amount of DNA was maintained constant by addition of empty vector DNA. 48 hours after transfection, culture medium were recovered, while cells were harvested in ice-cold phosphate buffer saline (PBS) and gently lysed in lysis buffer (50 mM Tris/HCl, pH 7.5, 150 mM NaCl, 0.5% Triton X-100, 10% glycerol, 50 mM NaF, 1mM Na vanadate), in the presence of a protease inhibitor cocktail (Complete, EDTA-free, Roche). The extracts were clarified by centrifugation at 16,000×g at 4° C., and the protein concentration determined by the Bio-Rad protein assay according to manufacturer's instructions. […] Radioactive samples were resolved on 10% SDS-PAGE and quantitated with a Storm 840 phosphorimager (Amersham Pharmacia Biotech). […]

[2] = tested on: Aβ secretion, HEK293 cells transfected with APP695 and SrcYF; experiment: Aβ accumulation in culture medium of HEK293 cells co-transfected with APP695 and active Src (SrcYF), sandwich ELISA (FIG. 5); assay type: cell-based, Human; details: exposure for 48 hours to 1, 5 and 20 μM PP2 or PP3, sandwich ELISA on culture medium
Procedure: as §1, with “48 hours after transfection, culture medium were recovered, while cells were harvested in ice-cold phosphate buffer saline (PBS) and gently lysed in lysis buffer (50 mM Tris/HCl, pH 7.5, 150 mM NaCl, 0.5% Triton X-100, 10% glycerol, 50 mM NaF, 1mM Na vanadate), in the presence of a protease inhibitor cocktail (Complete, EDTA-free, Roche).” left out
HEK293 cells were transfected with APP695 expression vectors. […] HEK293 cells were co-transfected with APP and either empty vector, or active Abl (Abl-PP), or active Src (SrcYF) kinases, and the secretion of APPsec and β were evaluated. […] Both medium and protein extracts have been used in immunoprecipitation experiments for quantitative dosage of radiolabeled APPsec and holo-APP, respectively. […]

SMILES | amount of Aβ [1] | secreted Aβ [2]
CC(C)(C)n1nc(-c2ccc(Cl)cc2)c2c(N)ncnc21 [PP2, 4-amino-5-(4-chlorophenyl)-7-(t-butyl)pyrazolo[3,4d]pyrimidine] | reduces in a dose-dependent manner the amount of Aβ | dose-dependent decrease of secreted AP
Nc1ncnc2c1cnn2-c1ccccc1 [PP3] | has no effect | do not affect Aβ rise by SrcYF transfection
